One series has as its target TDP1 (Homo sapiens, UniProt Q9NUW8). The series is described as follows: TDP1 inhibition fluorescence assay (quenched fluorescent single-stranded oligonucleotide substrate). In kind it is biochemical. The following applies: substrate 5′-FAM-AGGATCTAAAAGACTT-BHQ-3′, repeated at least three times, read-out: TDP1 Inhibition (IC50 ± SD). An excerpt:
Considering the chiral properties of compounds will affect their activity, all of the obtained compounds, including racemates and enantiomers, were screened for TDP1 inhibition through a fluorescence assay using a quenched fluorescent single-stranded oligonucleotide (5′-FAM-AGGATCTAAAAGACTT-BHQ-3′) as substrate. […] To further investigate the mechanism of the TDP1 inhibitory activity of (+)-6 and (−)-6, a hypothetical binding mode was built using in silico docking from the X-ray crystal structure of humanized TDP1-inhibitor (PDB: 6DJD) to evaluate the mode of interactions of (+)-6 and (−)-6 with TDP1. The inhibitor was docked into the binding site. The tricyclic core of (+)-6 binds to the DNA binding groove in the proximity of the catalytically important residue His263, indicating a potential π–π stacking interaction stabilizing the inhibitor TDP1 complex. Three hypothetical hydrogen bonds were observed between the phenol hydroxy group and the amide group of residue Asn516 (2.9 Å), the 1″-hydroxy group and Ser518 residue (3.0 Å), and the pyran O atom and Ser400 residue (3.5 Å), which might contribute to TDP1 inhibition. Similarly, the polycyclic core scaffold of (−)-6 also lied along the DNA binding groove (Figure 7B), and the H-bonds (3.1 Å) between the phenol hydroxy group and the amide group of residue Asn516 was also observed. In addition, two H-bonds formed between the 2″-hydroxyl group and Ser400 residue (2.5 Å) and the pyran oxygen atom and phenol hydroxy group of Tyr204 residue (3.1 Å). […] The gold score values of (+)-6 and (−)-6 were 55.62 and 44.90, respectively. […] The mechanism of the TDP1 inhibitory activity of (±)-6 remains to be validated by biophysical assays in further research.
The TDP1 inhibition was tested through a fluorescence assay according to a previously reported method. Detailed procedures are included in the Supporting Information. […]
Briefly, TDP1 solution (20 μL/well, 0.02 μL of purified TDP1 (100 nM) in 10 mM Tris-HCl, pH 7.5, 50 mM KCl, 1 mM EDTA, 1 mM DTT) was dispensed into wells of a white 384-well plate (NEST). The tested compound solution in DMSO (5 μL) was pinned into assay plates and incubated at room tempera-ture for 30 min. During this time, the plates were read by a Flash multimode reader (Molecular Devices) at Ex485/Em510 nm to identify false-positive compound that had autofluorescence. The linear oligonucle-otide substrate 5′-FAM-AGGATCTAAAAGACTT-BHQ-3′ (25 μL, 35 nM) was dispensed into the wells to start the reaction. The whole plate was immediately read five times using a kinetic read on the Flash […]
multimode reader (Molecular Devices) (Ex485/Em510 nm). TDP1 percentage inhibition of the tested com-pound was calculated by comparing the rate of increase in fluorescence throughout time for the com-pound-treated wells to that of DMSO control wells. […]

A short description of series [1]: Measurement of fluorescent properties in MeOH. The class given is physicochemical. The note with it: 300 μg/mL in MeOH; for Stokes Shift / λ em: λexc = 365 nm. As to the method: (§1) Each probe was prepared at 300 μg/mL in MeOH. The absorption spectra were recorded from 200 to 400 nm using a Chirascan circular dichroism spectrometer ([…]). The fluorescence spectra were recorded from 385 to 750 nm with an excitation wavelength of 365 nm using Edinburgh Instruments FLS1000. For UV-irradiated probes, each probe was exposed to 365 nm UV light from a handheld UV lamp for a certain time, and the fluorescence spectra were then recorded using the same method mentioned above.

The nature of series [2]: Change in fluorescence emission upon photoirradiation with 365 nm UV light. The note with it: MeOH. The class given is physicochemical. On the procedure: In addition, the fluorescent properties of 1–6 were also evaluated. […] Meanwhile, compounds 1–6 with the concentration of […] were exposed to […] UV light, and their fluorescence emission spectra were recorded (Figure 10) as a control experiment because the assay used to assess TDP1 inhibition was a fluorescence assay. […] In addition, during the TDP1 inhibition assay, the tested compound solutions were read by a Flash multimode reader at Ex485/Em510 nm to identify false-positive compounds that had autofluorescence.
as §1

A word on the IC50: it is the midpoint of a concentration-inhibition curve.

Chain of TDP1 (Q9NUW8 whole entry): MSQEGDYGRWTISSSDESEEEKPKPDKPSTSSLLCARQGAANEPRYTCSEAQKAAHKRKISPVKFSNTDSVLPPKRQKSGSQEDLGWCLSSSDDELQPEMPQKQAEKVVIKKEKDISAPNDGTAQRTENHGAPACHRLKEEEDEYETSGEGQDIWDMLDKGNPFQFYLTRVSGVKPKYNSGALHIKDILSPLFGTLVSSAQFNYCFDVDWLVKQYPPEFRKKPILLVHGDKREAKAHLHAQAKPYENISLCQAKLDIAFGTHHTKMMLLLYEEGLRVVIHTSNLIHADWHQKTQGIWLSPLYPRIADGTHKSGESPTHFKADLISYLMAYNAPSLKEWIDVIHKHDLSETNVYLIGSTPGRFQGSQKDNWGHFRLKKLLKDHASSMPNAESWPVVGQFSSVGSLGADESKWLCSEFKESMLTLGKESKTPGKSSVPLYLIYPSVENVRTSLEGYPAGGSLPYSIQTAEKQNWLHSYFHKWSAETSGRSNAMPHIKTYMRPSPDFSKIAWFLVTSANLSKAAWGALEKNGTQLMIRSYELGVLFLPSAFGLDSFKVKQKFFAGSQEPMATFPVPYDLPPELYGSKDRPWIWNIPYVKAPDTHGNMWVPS

With `CCCCC[C@@H]1O[C@@H](OC)c2c3c(cc(O)c2[C@@H]1OC)C[C@@H](O)C(C)(C)O3` [(−)-5, Aspergiletal C], the IC50 at TDP1 is over 100 µM.

For `CCCCC[C@@H]1O[C@@H](OC)c2c3c(cc(O)c2[C@@H]1OC)[C@@H](O)[C@@H](O)C(C)(C)O3` [(−)-6, Aspergiletal D], the half-maximal inhibitory concentration (IC50) on TDP1 is 37.3 ± 3.63 µM.

As to `CCCCC[C@H]1O[C@H](OC)c2c3c(cc(O)c2[C@H]1OC)C[C@H](O)C(C)(C)O3` [(+)-5, Aspergiletal C], the IC50 at TDP1 is over 100 µM.

Turning to `CCCCC[C@@H]1O[C@@H](OC)c2c3c(cc(O)c2[C@@H]1OC)C[C@@H](OC)C(C)(C)O3` [(−)-4, Aspergiletal B], the half-maximal inhibitory concentration (IC50) at TDP1 was over 100 µM.

For `CCCCC[C@@H]1O[C@@H](OC)c2c3c(cc(O)c2[C@@H]1OC)C=C(OC)C(C)(C)O3` [(−)-3, Aspergiletal A], at TDP1, the IC50 is over 100 µM.

As for `CCCCC[C@H]1O[C@H](OC)c2c3c(cc(O)c2[C@@H]1OC)C=CC(C)(C)O3` [(+)-2, eurotiumide F], the half-maximal inhibitory concentration (IC50) at TDP1 was over 100 µM.

As to `CCCCC[C@H]1O[C@H](OC)c2c3c(cc(O)c2[C@H]1OC)C=C(OC)C(C)(C)O3` [(+)-3, Aspergiletal A], the IC50 at TDP1 is over 100 µM.

Take `CCCCCC1OC(OC)c2c3c(cc(O)c2C1OC)C=CC(C)(C)O3` (single isomer, unassigned; (-)) [(−)-1, eurotiumide G]: the concentration for half-maximal inhibition (IC50) on TDP1 is over 100 µM.

With `CCCCC[C@H]1O[C@H](OC)c2c3c(cc(O)c2[C@H]1OC)C[C@H](OC)C(C)(C)O3` [(+)-4, Aspergiletal B], at TDP1, the 50% inhibitory concentration (IC50) was over 100 µM.

With `CCCCC[C@H]1O[C@H](OC)c2c3c(cc(O)c2[C@H]1OC)C=CC(C)(C)O3` [(+)-1, eurotiumide G], on TDP1, the IC50 was over 100 µM.

With `CCCCCC1OC(OC)c2c3c(cc(O)c2C1OC)C=CC(C)(C)O3` (racemic) [(±)-2, (±)-Eurotiumide F], the IC50 at TDP1 is 57.8 ± 2.2 µM. For the same compound, in series [1] (listed as 2), the ε turned out to be 70590.11 M^–1cm^–1, the λ abs came out at 223 nm, the “φ F” value was determined as 0.0225 and the “Stokes Shift” value is 241 nm. The same compound displayed a λ em in series [1] (listed as 2) of 464 nm. The “change of fluorescence with time upon 365 nm irradiation (photobleaching)” value (from here on “change of fluorescence”) in series [2] (listed as 2) was “responded similarly to 1 but with a smaller magnitude improvement in fluorescence”.

With `CCCCC[C@H]1O[C@H](OC)c2c3c(cc(O)c2[C@H]1OC)[C@H](O)[C@H](O)C(C)(C)O3` [(+)-6, Aspergiletal D], the IC50 on TDP1 turned out to be 27.8 ± 1.73 µM.

As to `CCCCCC1OC(OC)c2c3c(cc(O)c2C1OC)CC(O)C(C)(C)O3` (racemic) [(±)-5, (±)-Aspergiletal C], the half-maximal inhibitory concentration (IC50) at TDP1 is over 100 µM. For the same compound, in series [1], the ε came to 106186.60 M^–1cm^–1, the λ abs was determined as 203 nm, the “φ F” value is reported as 0.0482 and the “Stokes Shift” value is recorded as 229 nm. Moreover, in series [1], the λ em was found to be 432 nm. For the same compound, the “change of fluorescence” value in series [2] is “significant loss of fluorescence with time”.

Take `CCCCCC1OC(OC)c2c3c(cc(O)c2C1OC)C=CC(C)(C)O3` (racemic) [(±)-1, (±)-Eurotiumide G]: at TDP1, the IC50 is over 100 µM. In series [1] (listed as 1), the ε stood at 125388.61 M^–1cm^–1, the λ abs came out at 221 nm, the “φ F” value came out at 0.0392 and the “Stokes Shift” value was 224 nm. Also, the λ em in series [1] (listed as 1) came out at 445 nm. For the same compound, the “change of fluorescence” value in series [2] (listed as 1) is reported as “increased substantially with time”.

Consider `CCCCCC1OC(OC)c2c3c(cc(O)c2C1OC)C(O)C(O)C(C)(C)O3` (racemic) [(±)-6, (±)-Aspergiletal D], for which the IC50 at TDP1 was 6.5 ± 0.73 µM. Also, in series [1], the ε is 127827.28 M^–1cm^–1, the λ abs was 225 nm, the “φ F” value was determined as 0.0416 and the “Stokes Shift” value was 199 nm. Also, in series [1], the λ em worked out at 424 nm. Besides, the “change of fluorescence” value in series [2] is reported as “significant loss of fluorescence with time”.

In the case of `CCCCCC1OC(OC)c2c3c(cc(O)c2C1OC)C=C(OC)C(C)(C)O3` (racemic) [(±)-3, (±)-Aspergiletal A], the IC50 on TDP1 is over 100 µM. Moreover, in series [1], the ε is 61279.01 M^–1cm^–1, the λ abs was determined as 206 nm, the “φ F” value was 0.0048 and the “Stokes Shift” value was 266 nm. In addition, the λ em in series [1] turned out to be 472 nm. For the same compound, the “change of fluorescence” value in series [2] is “significant loss of fluorescence with time”.

With `CCCCCC1OC(OC)c2c3c(cc(O)c2C1OC)CC(OC)C(C)(C)O3` (racemic) [(±)-4, (±)-Aspergiletal B], on TDP1, the concentration for half-maximal inhibition (IC50) is over 100 µM. In addition, in series [1], the ε is on record as 208307.41 M^–1cm^–1, the λ abs worked out at 225 nm, the “φ F” value amounted to 0.0649 and the “Stokes Shift” value was 203 nm. The λ em in series [1] was 428 nm. For the same compound, the “change of fluorescence” value in series [2] is reported as “inert to photobleaching”.

Regarding `CCCCC[C@@H]1O[C@@H](OC)c2c3c(cc(O)c2[C@H]1OC)C=CC(C)(C)O3` [(−)-2, eurotiumide F], the IC50 on TDP1 was over 100 µM.

The values above are taken from publication PMC8954640, “Pyranodipyran Derivatives with Tyrosyl DNA Phosphodiesterase 1 Inhibitory Activities and Fluorescent Properties from Aspergillus sp. EGF 15-0-3” (Marine Drugs, 2022).
